In the NIST ThermoML archive (doi:10.1021/je060088h):

Details: Liquid, flow method with low res time

c1ccc2ccccc2c1 [naphthalene]
Details | Critical pressure [kPa] | Critical temperature [K] | vapor or sublimation pressure [kPa]
– | 4130 | 750 | –
502.2 K | – | – | 128.9
552.2 K | – | – | 337.8
646.6 K | – | – | 1338
731.8 K | – | – | 3445
741.5 K | – | – | 3793
745.9 K | – | – | 3958

CCCCCCCCCCCCS [1-dodecanethiol]
Details | Critical pressure [kPa] | Critical temperature [K] | vapor or sublimation pressure [kPa]
– | 1810 | 733.7 | –
544.5 K | – | – | 89.98
577.8 K | – | – | 178.6
614.7 K | – | – | 348.2
659.9 K | – | – | 694.3
688.6 K | – | – | 1039
712.4 K | – | – | 1384
729.8 K | – | – | 1726

OCCc1ccccc1 [2-phenylethanol]
Details | Critical pressure [kPa] | Critical temperature [K] | vapor or sublimation pressure [kPa]
– | 3990 | 723.5 | –
488.7 K | – | – | 91.7
515.5 K | – | – | 174.9
547.5 K | – | – | 340.6
587.4 K | – | – | 692.9
634.4 K | – | – | 1382
689.8 K | – | – | 2762
711.2 K | – | – | 3451
719.2 K | – | – | 3793
722.5 K | – | – | 3966

C=CCO [2-propenol]
Details | Critical pressure [kPa] | Critical temperature [K] | vapor or sublimation pressure [kPa]
– | 5640 | 547.1 | –
438.1 K | – | – | 759.8
465.2 K | – | – | 1383
498.5 K | – | – | 2595
531.5 K | – | – | 4482
545.4 K | – | – | 5516
546.5 K | – | – | 5599

CSc1ccccc1 [1-phenyl-1-thiaethane]
Details | Critical pressure [kPa] | Critical temperature [K] | vapor or sublimation pressure [kPa]
– | 4050 | 705.9 | –
463.7 K | – | – | 90.87
492.1 K | – | – | 177.3
526.3 K | – | – | 354.1
566.1 K | – | – | 696.4
613.6 K | – | – | 1383
671.1 K | – | – | 2765
691.7 K | – | – | 3454
699.9 K | – | – | 3799
704.3 K | – | – | 3964

CCCCCCCCCCCCCCCCCCCCCCCCCCCCCC [triacontane]
Details | vapor or sublimation pressure [kPa]
713.5 K | 82.32
737.8 K | 127.8
761.2 K | 190.2
786 K | 282.4
809.6 K | 414.1

CC(O)COC(C)(C)C (stereo unspecified) [1-(1,1-dimethylethoxy)-2-propanol]
Details | Critical pressure [kPa] | Critical temperature [K] | vapor or sublimation pressure [kPa]
– | 2720 | 600.7 | –
450.5 K | – | – | 200.9
472.9 K | – | – | 337.8
510.2 K | – | – | 689.5
553.3 K | – | – | 1380
592.7 K | – | – | 2414
597.5 K | – | – | 2586
598.5 K | – | – | 2668
